Experimental data as given in article PMC12756739 (ACS Omega, 2025).
Like-named read-outs stand apart in the source and are kept apart here.

Assays:
[1] = tested on: A549 cell line; assay: MTT cytotoxicity test, A549 cell line; format: cell-based; details: Homo sapiens, A549, read-out: IC50 (μM) A549
[2] = tested on: MCF-7 cell line; assay: MTT cytotoxicity test, MCF-7 cell line; format: cell-based; details: Homo sapiens, MCF7, read-out: IC50 (μM) MCF-7
[3] = tested on: NIH3T3 cells; assay: MTT cytotoxicity test, NIH3T3 cell line; format: cell-based; details: Mus musculus, NIH3T3, read-out: IC50 (μM) NIH3T3
[4] = molecular target: T1, COX-2 enzyme (Homo sapiens, UniProt P35354); assay: biochemical
T1 sequence (P35354 18-604): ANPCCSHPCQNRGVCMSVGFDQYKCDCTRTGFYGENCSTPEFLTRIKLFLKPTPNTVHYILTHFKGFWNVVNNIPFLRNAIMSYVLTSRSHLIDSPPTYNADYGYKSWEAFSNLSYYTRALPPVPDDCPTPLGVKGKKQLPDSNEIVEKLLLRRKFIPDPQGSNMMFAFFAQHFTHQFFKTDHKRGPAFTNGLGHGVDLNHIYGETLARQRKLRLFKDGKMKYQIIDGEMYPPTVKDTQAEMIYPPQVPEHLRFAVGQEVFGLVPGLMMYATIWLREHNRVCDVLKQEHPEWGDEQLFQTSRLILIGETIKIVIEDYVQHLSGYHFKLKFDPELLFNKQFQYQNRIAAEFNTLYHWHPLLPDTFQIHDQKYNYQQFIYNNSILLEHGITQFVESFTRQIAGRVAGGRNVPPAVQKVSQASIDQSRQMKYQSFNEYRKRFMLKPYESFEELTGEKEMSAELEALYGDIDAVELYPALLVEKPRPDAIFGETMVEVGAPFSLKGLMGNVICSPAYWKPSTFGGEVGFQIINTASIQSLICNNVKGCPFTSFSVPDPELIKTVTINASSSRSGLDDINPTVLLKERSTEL

[5] = tested on: HDAC1; details: read-out: IC50 HDAC1; ref Mohamed et al.; cited from earlier work
[6] = tested on: HDAC2; details: read-out: IC50 HDAC2; ref Mohamed et al.; cited from earlier work
[7] = molecular target: CA IX; details: read-out: inhibition constant CA IX; ref Mohamed et al.; cited from earlier work
[8] = molecular target: CA XII; details: read-out: inhibition constant CA XII; ref Mohamed et al.; cited from earlier work
[9] = tested on: tubulin polymerization; details: read-out: IC50 antitubulin polymerization assay; ref Mohamed et al.; cited from earlier work
[10] = molecular target: EGFR enzyme (Homo sapiens, UniProt P00533); assay: EGFR kinase inhibition assay; format: biochemical
[11] = tested on: MCF-7 cell line; assay: Flow cytometric apoptosis/necrosis analysis; format: cell-based; details: at the IC50 concentration
[12] = tested on: topoisomerase II; details: ref Ewieda et al.; cited from earlier work
[13] = tested on: CDK2; details: ref Abdalla et al.; cited from earlier work
[14] = tested on: CDK6; details: ref Abdalla et al.; cited from earlier work
[15] = tested on: CDK12; details: ref Abdalla et al.; cited from earlier work
[16] = tested on: COX-2; details: ref Fadaly et al.; cited from earlier work
[17] = tested on: EGFR^WT; details: ref Fadaly et al.; cited from earlier work
[18] = tested on: EGFR^L858R/T790M; details: ref Fadaly et al.; cited from earlier work
[19] = tested on: EGFR^T790M; details: read-out: IC50 EGFR^T790M; ref Aboelez et al.; cited from earlier work
[20] = tested on: EGFR^WT; details: read-out: IC50 EGFR^WT; ref Aboelez et al.; cited from earlier work
[21] = tested on: tubulin polymerization; details: read-out: antitubulin polymerization IC50; ref Aboelez et al.; cited from earlier work
[22] = tested on: VEGFR-2; details: read-out: IC50 VEGFR-2; ref Abd El-Mawgoud et al.; cited from earlier work
[23] = tested on: AKT-1; details: read-out: IC50 AKT-1; ref Abd El-Mawgoud et al.; cited from earlier work
[24] = tested on: carbonic anhydrase IX (CA IX); details: ref Fadaly et al.; cited from earlier work
[25] = tested on: carbonic anhydrase XII (CA XII); details: ref Fadaly et al.; cited from earlier work

Sequence of EGFR enzyme (P00533 25-1210): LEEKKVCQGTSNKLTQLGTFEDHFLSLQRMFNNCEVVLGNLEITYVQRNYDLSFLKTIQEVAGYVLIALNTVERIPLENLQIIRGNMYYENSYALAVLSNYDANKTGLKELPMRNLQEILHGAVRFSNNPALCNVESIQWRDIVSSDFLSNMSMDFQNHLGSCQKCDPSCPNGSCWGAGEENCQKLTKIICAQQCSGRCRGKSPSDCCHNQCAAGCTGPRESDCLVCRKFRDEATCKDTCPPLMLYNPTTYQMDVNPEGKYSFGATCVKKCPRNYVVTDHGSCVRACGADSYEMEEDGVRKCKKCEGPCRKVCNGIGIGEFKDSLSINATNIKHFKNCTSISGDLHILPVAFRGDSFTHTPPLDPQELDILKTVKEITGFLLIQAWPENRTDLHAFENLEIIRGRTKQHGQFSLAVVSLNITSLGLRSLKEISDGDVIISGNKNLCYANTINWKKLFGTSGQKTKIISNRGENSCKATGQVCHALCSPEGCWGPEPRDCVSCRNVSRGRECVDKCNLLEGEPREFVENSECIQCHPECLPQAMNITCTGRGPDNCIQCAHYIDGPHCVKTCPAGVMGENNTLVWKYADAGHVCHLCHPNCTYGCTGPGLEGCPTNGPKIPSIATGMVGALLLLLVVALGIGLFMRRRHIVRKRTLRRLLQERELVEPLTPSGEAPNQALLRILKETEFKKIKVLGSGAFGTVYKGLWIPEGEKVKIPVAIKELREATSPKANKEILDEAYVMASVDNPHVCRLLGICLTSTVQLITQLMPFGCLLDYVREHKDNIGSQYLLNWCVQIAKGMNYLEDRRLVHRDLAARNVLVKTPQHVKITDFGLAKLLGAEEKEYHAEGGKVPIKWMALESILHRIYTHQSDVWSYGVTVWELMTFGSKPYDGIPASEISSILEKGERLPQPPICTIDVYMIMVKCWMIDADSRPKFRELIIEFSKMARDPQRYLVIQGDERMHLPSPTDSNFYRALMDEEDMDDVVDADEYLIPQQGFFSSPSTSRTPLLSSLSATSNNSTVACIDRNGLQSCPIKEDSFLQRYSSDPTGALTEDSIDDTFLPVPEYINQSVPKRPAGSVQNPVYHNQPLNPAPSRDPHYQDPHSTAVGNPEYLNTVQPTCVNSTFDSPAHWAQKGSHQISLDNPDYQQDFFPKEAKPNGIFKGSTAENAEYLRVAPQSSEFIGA

| IC50 [4] | Compound | IC50 [1] | IC50 [2] | IC50 [3] | also measured |
| --- | --- | --- | --- | --- | --- |
| 6.72 ± 0.312 µM | O=C(CSc1nnc(NC(=O)c2ccc(Cl)c(Cl)c2)s1)Nc1ccc(Cl)cc1 [3d, 3,4-Dichloro-N-(5-((2-((4-chlorophenyl)amino)-2-oxoethyl)thio)-1,3,4-thiadiazol-2-yl)benzamide] | > 100 µM | > 100 µM | > 100 µM | – |
| > 1000 µM | COc1ccc(C(=O)Nc2nnc(SCC(=O)Nc3ccccc3)s2)cc1 [3p, 4-Methoxy-N-(5-((2-oxo-2-(phenylamino)ethyl)thio)-1,3,4-thiadiazol-2-yl)benzamide] | > 100 µM | > 100 µM | > 100 µM | – |
| – | NS(=O)(=O)c1ccc(NC(=O)COc2ccc(/C=C/C(=O)c3ccc(Br)cc3)cc2)cc1 [(E)-2-(4-(3-(4-bromophenyl)-3-oxoprop-1-en-1-yl)phenoxy)-N-(4-sulfamoylphenyl)acetamide] | – | – | – | IC50 [5]: 0.134 µM; IC50 [6]: 0.0663 µM; Ki [7]: 0.072 ± 0.00258 µM; Ki [8]: 0.0508 ± 0.00258 µM; IC50 [9]: 2.56 µM |
| – | COc1cccc2c1C(=O)c1c(O)c3c(c(O)c1C2=O)C[C@@](O)(C(=O)CO)C[C@@H]3O[C@H]1C[C@H](N)[C@H](O)[C@H](C)O1 [doxorubicin, reference compound] | – | – | > 100 µM | – |
| 0.192 ± 0.008 µM | NS(=O)(=O)c1ccc(NC(=O)CSc2nnc(NC(=O)c3ccc(Cl)cc3)s2)cc1 [3j, 4-Chloro-N-(5-((2-oxo-2-((4-sulfamoylphenyl)amino)ethyl)thio)-1,3,4-thiadiazol-2-yl)benzamide] | 20.7 ± 0.984 µM | 2.38 ± 0.108 µM | 85.6 ± 3.16 µM | IC50 [10]: 0.02 ± 0.0008 µM; % early apoptosis ([11]; lower right quadrant): 20.20%; % necrosis ([11]; upper left quadrant): 4.08%; % late apoptosis ([11]; upper right quadrant): 15.56% |
| 0.32 ± 0.014 µM | NS(=O)(=O)c1ccc(NC(=O)CSc2nnc(NC(=O)c3ccc(Cl)c(Cl)c3)s2)cc1 [3e, 3,4-Dichloro-N-(5-((2-oxo-2-((4-sulfamoylphenyl)amino)ethyl)thio)-1,3,4-thiadiazol-2-yl)benzamide] | > 100 µM | 11 ± 0.402 µM | 70.8 ± 2.5 µM | – |
| 2.39 ± 0.104 µM | O=C(CSc1nnc(NC(=O)c2ccc(Cl)c(Cl)c2)s1)Nc1ccccc1 [3a, 3,4-Dichloro-N-(5-((2-oxo-2-(phenylamino)ethyl)thio)-1,3,4-thiadiazol-2-yl)benzamide] | > 100 µM | > 100 µM | > 100 µM | – |
| > 1000 µM | O=C(CSc1nnc(NC(=O)c2ccc(F)cc2)s1)Nc1ccccc1 [3k, 4-Fluoro-N-(5-((2-oxo-2-(phenylamino)ethyl)thio)-1,3,4-thiadiazol-2-yl)benzamide] | 69.1 ± 2.8 µM | > 100 µM | > 100 µM | – |
| 3.78 ± 0.177 µM | O=C(CSc1nnc(NC(=O)c2ccc(Cl)cc2)s1)Nc1ccc(Cl)cc1 [3i, 4-Chloro-N-(5-((2-((4-chlorophenyl)amino)-2-oxoethyl)thio)-1,3,4-thiadiazol-2-yl)benzamide] | > 100 µM | 12.1 ± 0.589 µM | 24.9 ± 1.18 µM | – |
| 0.874 ± 0.039 µM | O=C(CSc1nnc(NC(=O)c2ccc(Cl)cc2)s1)Nc1ccccc1 [3f, 4-Chloro-N-(5-((2-oxo-2-(phenylamino)ethyl)thio)-1,3,4-thiadiazol-2-yl)benzamide] | > 100 µM | > 100 µM | > 100 µM | – |
| – | Br.CCOC(=O)C1=C(c2ccccc2)N=C2SC=C(c3ccc(C)cc3)N2C1c1ccc(Br)cc1 (centres unmarked) [Ethyl 5-(4-bromophenyl)-3-(4-methylphenyl)-7-phenyl-5H-thiazolo[3,2-a]pyrimidine-6-carboxylate hydrobromide] | – | – | – | activity against topoisomerase [12]: 0.94 µM |
| > 100 µM | O=C(CSc1nnc(NC(=O)c2ccc(Cl)cc2)s1)Nc1ccc(C(F)(F)F)cc1 [3g, 4-Chloro-N-(5-((2-oxo-2-((4-(trifluoromethyl)phenyl)amino)ethyl)thio)-1,3,4-thiadiazol-2-yl)benzamide] | 21.1 ± 0.996 µM | 27.1 ± 1.26 µM | > 100 µM | – |
| – | Nc1ccccc1C(=O)O [Anthranilic acid] | – | – | – | activity against CDK2 [13]: 0.67 µM; activity against CDK6 [14]: 0.48 µM; activity against CDK12 [15]: 0.82 µM |
| – | CS(=O)(=O)c1ccc(-n2cc(/C=N/c3ccc(NC(=O)CO[N+](=O)[O-])cc3)c(-c3ccc(Br)cc3)n2)cc1 [(E)-2-((4-(((3-(4-bromophenyl)-1-(4-(methylsulfonyl)phenyl)-1H-pyrazol-4-yl)methylene)amino)phenyl)amino)-2-oxoethyl nitrate] | – | – | – | activity against COX-2 [16]: 0.437 µM; activity against EGFR^WT [17]: 0.452 µM; activity against EGFR^L858R/T790M [18]: 0.031 µM |
| – | CC(=NNC(=O)c1sc2sc(C(=O)NN=C(C)c3ccccc3)c(N)c2c1N)c1ccccc1 [3,4-diamino-N′2,N′5-bis(1-phenylethylidene)thieno[2,3-b]thiophene-2,5-dicarbohydrazide] | – | – | – | IC50 [19]: 0.0246 µM; IC50 [20]: 0.0281 µM; IC50 [21]: 5.1 µM |
| – | O=C(CSc1nnc(NC(=O)c2ccc(F)cc2)s1)Nc1ccc(C(F)(F)F)cc1 [3l, 4-Fluoro-N-(5-((2-oxo-2-((4-(trifluoromethyl)phenyl)amino)ethyl)thio)-1,3,4-thiadiazol-2-yl)benzamide] | 41.1 ± 1.96 µM | 30.5 ± 1.37 µM | 46.2 ± 1.82 µM | IC50 ([4]; read-out: COX-2 IC50, fluorometric kit, 25 °C): 0.974 ± 0.045 µM |
| > 100 µM | COc1ccc(C(=O)Nc2nnc(SCC(=O)Nc3ccc(C(F)(F)F)cc3)s2)cc1 [3r, 4-Methoxy-N-(5-((2-oxo-2-((4-(trifluoromethyl)phenyl)amino)ethyl)thio)-1,3,4-thiadiazol-2-yl)benzamide] | > 100 µM | 43.1 ± 2.06 µM | 47.6 ± 1.77 µM | – |
| > 1000 µM | O=C(CSc1nnc(NC(=O)c2ccc(Cl)c(Cl)c2)s1)Nc1ccc(C(F)(F)F)cc1 [3b, 3,4-Dichloro-N-(5-((2-oxo-2-((4-(trifluoromethyl)phenyl)amino)ethyl)thio)-1,3,4-thiadiazol-2-yl)benzamide] | 46.5 ± 1.45 µM | > 100 µM | 67.1 ± 2.37 µM | – |
| 0.721 ± 0.03 µM | O=C(CSc1nnc(NC(=O)c2ccc(F)cc2)s1)Nc1ccc(Cl)cc1 [3n, 4-Fluoro-N-(5-((2-((4-chlorophenyl)amino)-2-oxoethyl)thio)-1,3,4-thiadiazol-2-yl)benzamide] | > 100 µM | > 100 µM | > 100 µM | – |
| – | Nc1nc2c3c(N)c(-c4nnc(NC(=O)c5ccccc5)s4)sc3ncn2n1 [N-(5-(2,9-diaminothieno[3,2-e]1,3,4-triazolo[1,5-c]pyrimidin-8-yl)-1,3,4-thiadiazol-2-yl)benzamide] | – | – | – | IC50 [22]: 0.164 µM; IC50 [23]: 0.452 µM |
| – | COc1ccc(-c2csc(N3N=C(c4nnn(-c5ccc(S(N)(=O)=O)cc5)c4C)CC3c3ccc(OC)cc3)n2)cc1 (centres unmarked) [4-(4-(5-(4-methoxyphenyl)-1-(4-(4-methoxyphenyl)thiazol-2-yl)-4,5-dihydro-1H-pyrazol-3-yl)-5-methyl-1H-1,2,3-triazol-1-yl)benzenesulfonamide] | – | – | – | activity against CA IX [24]: 0.025 µM; activity against CA XII [25]: 0.031 µM |
| > 100 µM | COc1ccc(C(=O)Nc2nnc(SCC(=O)Nc3ccc(Cl)cc3)s2)cc1 [3t, 4-Methoxy-N-(5-((2-oxo-2-((4-chlorophenyl)amino)ethyl)thio)-1,3,4-thiadiazol-2-yl)benzamide] | > 100 µM | > 100 µM | > 100 µM | – |
